Among the data in a melting point compilation (Tetko et al.; mined from patent text by program, amines drawn as free bases though some values may be those of a salt) are melting point values, retold here.

As usually defined, the melting point is the temperature, or range, at which the solid turns liquid.

The molecule `COc1cc(C(C)=NN)ccc1OCCCN1CCC(c2noc3cc(F)ccc23)CC1` came in with a melting point of 106 to 108 °C.

The molecule `CCCCCC(=O)c1cc(Cl)ccc1N(CC(=O)OC)S(=O)(=O)c1ccc(C)cc1` had a melting point of 68 to 70 °C.

`CC(C)(C)CNC=Nc1ccc(-c2c[nH]cn2)cc1Br` gave a melting point of 151 to 154 °C.

With `COC(=O)C1Cc2c(nc(C)n2-c2ccc(N(C)C)c(C)c2)CN1C(=O)C(c1ccccc1)c1ccccc1` (configuration not stated), the melting point was 165 °C.

In turn, `COc1cccc2c(CN3CC=C(/C=C/c4ccccc4)CC3)coc12` displayed a melting point of 152 to 153 °C.

Molecule `O=[N+]([O-])c1cccc(Br)c1CBr` came in with a melting point of 61.5 to 63 °C.

On to `COc1cc2c(cc1/C=C/CCO)oc1cc(-c3ccccc3Cl)c3c(c12)C(=O)NC3=O`, for which the melting point lay within 247 to 250 °C.

`CCOC(=O)c1cc(=O)c2c(OCC(O)COc3ccccc3C)cccc2o1` (configuration not stated) displayed a melting point of 75 to 76 °C.

In the case of `Cc1[nH]c2ccc(/C=C/C(=O)OCc3ccccc3)cc2c1Cn1ccnc1`, the melting point lay within 120 to 122 °C.

With `NCc1ccc(CC(N)=O)cc1`, the melting point lay within 138 to 140 °C.

The molecule `NC(=S)NN=Cc1ccc(N)cn1` yielded a melting point of 205 to 207 °C.

On to `COc1ccc(C(=O)c2c(N)sc3c2CCN(Cc2ccccc2)C3)cc1OC`, for which the melting point fell in the range of 149 to 150 °C.

For the molecule `c1ccc(Nc2ncnc3ncccc23)cc1`, the melting point was 258 °C.

On to `CCc1c(C(=O)NN2CCCCC2)nn(-c2ccc(Cl)cc2Cl)c1-c1ccc(Br)cc1`, for which the melting point fell in the range of 112 to 115 °C.

`CCOCc1nc2c(N)nc3ccccc3c2n1CCOCc1ccccc1` showed a melting point of 144 to 146 °C.

As to `O=C(O)Cn1c(=O)sc2cc(Br)c(Cl)cc21`, the melting point fell in the range of 249 to 252 °C.

Regarding `CCc1nnc(C=Cc2ncc([N+](=O)[O-])n2C)s1`, the melting point is 165 °C.

`N#C/C=C\c1ccccc1C(=O)Cl` yielded a melting point of 72 to 74 °C.

In turn, `CCCc1nc2c(N)nc3cccnc3c2n1CC1(O)CCCCC1` registered a melting point of 209 to 211 °C.

`c1csc(OCCOc2ccc3ccccc3c2)c1`: the melting point lay within 129 to 130 °C.

With `O=C(O)CN1C(=O)C(=Cc2cc(OCc3ccccc3)c(OCc3ccccc3)c(OCc3ccccc3)c2)SC1=S`, the melting point lay in the range of 213 to 216 °C.

Molecule `O=C(O)CC(=O)N(c1ccccc1)c1ccccc1` gave a melting point of 126 to 127 °C.

For `CCNC[C@H]1CCc2cc(F)cc(-c3c(Cl)cccc3Cl)c2O1`, the melting point is more than 225 °C.

`CCOC(=O)C1(Br)Oc2ccc(OC(C)=O)cc2OC1Br` (configuration not stated) came in with a melting point of 58 °C.

In the case of `CCCCNC1=NS(=O)(=O)c2ccc(Cl)cc2N1`, the melting point is 267 to 269 °C.

Molecule `CCOc1ccc(C2=NN(CC3CC3)C(=O)[C@H]3CC=CC[C@@H]23)cc1OCC` (relative stereo) came in with a melting point of 142 to 145 °C.

On to `CCc1nn(C(C)C)c2cc(C(=O)O)ccc12`, for which the melting point was in the range of 160 to 163 °C.

In the case of `CC1=NC(NC(=O)Nc2cccc(C)n2)C(=O)N(CC(=O)N2CC3CCC(CC3)C2)c2c(C)cccc21` (configuration not stated), the melting point fell in the range of 151 to 152 °C.

`CS(=O)(=O)c1ccc(-c2c(-c3ccc(F)cc3)c(OCC(=O)c3ccccc3)nn2CC(=O)c2ccccc2)cc1` yielded a melting point of 151 to 152 °C.

Consider `CNC(=O)N(Cc1ccc(C)c(C)c1)NC(=O)OC(C)(C)C`, for which the melting point was 99.7 to 105 °C.

With `C=CCN1C2CCC3C1CCC2N3C(c1ccc(C(=O)N2CCCCC2)cc1)c1cccc(OC)c1` (configuration not stated), the melting point lay within 94 to 96 °C.

`O=C1C(Cl)=C(c2ccccc2)C(=O)N1c1cccc(Cl)c1`: the melting point lay in the range of 67 to 68 °C.

In turn, `CCOC(=O)C(=CNc1ccc(C)cc1CO)C(=O)OCC` registered a melting point of 92 to 95 °C.

In turn, `Cc1ccn(-c2ccc(C(=O)N3Cc4cccnc4Oc4ccccc43)c(Cl)c2)n1` displayed a melting point of 220 to 222 °C.

Molecule `O=C(O)c1cn(C2CC2)c2cc(F)c(F)cc2c1=O` returned a melting point of 288 to 290 °C.

Molecule `CCOP(OCC)c1ccccc1P(c1cc(C(C)(C)C)c(OC)c(C(C)(C)C)c1)c1cc(C(C)(C)C)c(OC)c(C(C)(C)C)c1` had a melting point of 104 to 105 °C.

`C=CC1(CC)OC(=O)c2ccc(Oc3ccc(C(F)(F)F)cc3Cl)cc21` (configuration not stated) displayed a melting point of 77 to 79 °C.

With `COc1cc(Cc2cnc(N)nc2N)cc(OC(C)C(C)=O)c1OC` (configuration not stated), the melting point came to 168 °C.

As to `COC(=O)c1c(C)nc2c(c1N)c1ccccc1n2Cc1ccc(OC)cc1`, the melting point is 142 to 145 °C.

In turn, `Clc1cc(-c2ccccn2)ccn1` had a melting point of 80 to 81 °C.

`CCN(CC)Cc1cccn1N(C)c1ccnc2cc(C(F)(F)F)ccc12` displayed a melting point of 64 to 66 °C.

With `CNc1c(Cl)cc2c3c(cccc13)C(=O)N(C1CCN(C)CC1)C2=O`, the melting point is 298 to 302 °C.

As to `Cc1cccc(-c2ccc(C(=O)N3Cc4cccn4Cc4ccccc43)cc2)c1`, the melting point lay within 128 to 130 °C.

`NC(=O)c1c(Cl)cn2c1CN(S(=O)(=O)c1ccc(C(F)(F)F)cc1)CC2`: the melting point is 159 to 160 °C.

The molecule `O=C(O)c1ccc2nc3c4nc5cc(C(=O)O)ccc5nc4c4nc5cc(C(=O)O)ccc5nc4c3nc2c1` gave a melting point of more than 390 °C.

Molecule `CC1(C)OC(=O)Nc2c(O)cc(-c3cc(F)cc(C#N)c3)cc21` came in with a melting point of 197 to 198 °C.

For `Cc1cc(C(F)(F)F)n2nc(SCc3ccccc3)nc2n1`, the melting point is 83.5 to 84.5 °C.

Consider `CC(C(=O)O)C1CCCc2c1n(Cc1ccc(Cl)cc1)c1ccc(F)cc21` (configuration not stated), for which the melting point lay within 203 to 205 °C.

`O=C(O)CCCCCCCCCC#CC#Cc1ccco1` came in with a melting point of 62.6 to 63.5 °C.

Turning to `CCOC(=O)c1nc(Nc2ccccc2)sc1-c1ccncc1`, the melting point is 167 to 169 °C.

As for `CNC(Cc1cc(Br)cc(Br)c1N)c1sccc1C` (configuration not stated), the melting point lay within 141 to 143 °C.

For `Cc1cc(NC(=O)C2(C)CC2)ccc1OC(C)C`, the melting point was in the range of 99 to 101 °C.

As to `O=C(NC1CCN(CCNC(=O)c2n[nH]c3ccccc23)CC1)OCc1ccccc1`, the melting point lay in the range of 184 to 187 °C.

With `CCOC(=O)c1ccc(NN2CN(Nc3ccc(C(=O)OCC)cc3)CN(Nc3ccc(C(=O)OCC)cc3)C2)cc1`, the melting point was in the range of 218 to 223 °C.

As to `COC(=O)c1cc2ccc(Br)cc2s1`, the melting point was in the range of 108 to 110 °C.

Take `[N-]=[N+]=N[C@@H]1c2cc(F)ccc2Oc2ccccc2[C@H]1C[C@@H](O)COC(c1ccccc1)(c1ccccc1)c1ccccc1`: the melting point is 58 to 59 °C.

With `CCCN1N=C(c2ccc(OC)c(OC)c2)[C@@H]2CCCC[C@@H]2C1=O` (relative stereo), the melting point was in the range of 95 to 96 °C.

The molecule `CCOC1=N[C@@H](CSCC)C(=O)N[C@@H]1Cc1ccccc1` displayed a melting point of 118 °C.

The molecule `CCn1c(Cl)c(C=O)c(=O)n(CC)c1=NO` showed a melting point of 115 to 116 °C.

Regarding `CC1(C)CC2(CC(C)(C)N1)NC(=O)N(CC(O)COc1ccc(Cc3ccc(OCC(O)CN4C(=O)NC5(CC(C)(C)NC(C)(C)C5)C4=O)cc3)cc1)C2=O` (configuration not stated), the melting point lay in the range of 113 to 118 °C.

For the molecule `COc1ccc(S(=O)(=O)NCc2ccccc2)c2c1oc1ccccc12`, the melting point was in the range of 180 to 185 °C.

Take `CCOc1ccc(-n2nc(Sc3ccc(Cl)cc3)c(C)c(C#N)c2=O)cc1`: the melting point lay within 138 to 145 °C.

As to `CC(C)(C)c1ccc(-c2cc(C(=O)/C=C/c3ccc(C(=O)O)cc3)cc3c2C(C)(C)CCC3(C)C)cc1`, the melting point amounted to 241 °C.

Molecule `CC(C)c1ccc(S(=O)(=O)c2ccccc2)c(C(C)C)c1` showed a melting point of 105 to 107 °C.

As to `COC(=O)c1n[nH]c2nc(N3CCN(C)CC3)ccc12`, the melting point is 230 to 231 °C.

In turn, `O=C(NC(=S)Nc1ccc(F)cc1)c1ccccc1` yielded a melting point of 82 °C.

In turn, `O=C(O)CCCCCCCc1nn(-c2ccccc2)c2c1CCC2` came in with a melting point of 55 to 57 °C.

As for `N#CC(=NO)C1CCCOC1` (configuration not stated), the melting point lay within 46 to 50 °C.

`CC(=O)c1c(C(C)C)nn2c(C)cccc12` showed a melting point of 67.5 to 68 °C.

In turn, `CN1COCN(Cc2ccc(Cl)nc2)C1=N[N+](=O)[O-]` gave a melting point of 116 to 118 °C.

`O[C@H]1CC[C@H](CN2CCC(=C3c4ccc(F)cc4Sc4ccc(C(F)(F)F)cc43)CC2)CC1` gave a melting point of 144 to 146 °C.

As to `O=C1C[C@@H]2O[C@@H](CS(=O)(=O)Cc3ccccc3)CN12` (racemic), the melting point lay in the range of 137 to 145 °C.

The molecule `CCOC(=O)c1cnc2c(NC(=O)c3c(Cl)cccc3Cl)cccc2c1CSc1ccncc1` yielded a melting point of 179 to 181 °C.

`CN(Cc1cc2c3c(c1)c(=O)c(C(=O)NCc1ccc(Cl)cc1)cn3CC(=O)N2C)C[C@@H](O)c1cc2ccccc2o1`: the melting point fell in the range of 86 to 87 °C.

In turn, `O=C1OC(CCc2ccccc2)(c2ccccc2)CC(O)=C1CCc1ccccc1` (configuration not stated) came in with a melting point of 68 to 70 °C.

Regarding `CCOC(=O)NC(=NCCCc1c[nH]cn1)NCCSCc1cccnc1`, the melting point lay in the range of 90 to 91 °C.

`CCOC(=O)c1ccccc1-c1cc(-c2ccc(Cl)cc2Cl)no1`: the melting point is 85 to 86 °C.

On to `COC(=O)c1cc2ccc(O)cc2o1`, for which the melting point is 176 to 177 °C.

Molecule `Cn1c(=O)cc(-c2nc(-c3ccccc3)cs2)c2cc(C(c3ccc(Cl)cc3)c3cnc(-c4ccccc4)[nH]3)ccc21` (configuration not stated) yielded a melting point of 190 °C.

Molecule `CC(C)C(CO)(CO)[N+](=O)[O-]` yielded a melting point of 67 to 72 °C.

`COC(=O)C1=C(C)NC(C)=C(C(=O)OCC2CCCO2)C1c1cccc(O)c1` (configuration not stated) returned a melting point of 170 to 172 °C.

On to `Cc1cc(C)c2c(c1)C(Nc1ncnc(N)n1)CCC2` (configuration not stated), for which the melting point was in the range of 178 to 180 °C.

Molecule `C#CCN1Cc2cccc3cccc(c23)C1=O` displayed a melting point of 139 to 140 °C.

As for `ON=C1CCc2c([nH]c3ccccc23)C1`, the melting point is 196 °C.

`O=C(O)CCC(=O)c1cccc(Cl)c1` registered a melting point of 105 to 107 °C.

Turning to `O=S(=O)(Cl)c1ccc(-c2ccc3c(c2)OCO3)s1`, the melting point was in the range of 117 to 119 °C.

Molecule `O=C1CCC(N2Cc3cc(CNC(=O)NC4CCCCC4)ccc3C2=O)C(=O)N1` (configuration not stated) showed a melting point of 265 to 267 °C.
